Reference: PubChem BioAssay (NCI)
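Each compound was tested at five concentrations against cells in 96-well plates for 48 hours. GI50 is the concentration that inhibits growth by half. TGI denotes the concentration required for complete inhibition of growth.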

Tests used:
Assay in all cases: NCI tumour cell line growth inhibition, 48 h
[1] = test system: HOP-62 NSCLC
[2] = test system: HOP-92 NSCLC
[3] = test system: NCI-H522 lung
[4] = test system: OVCAR-4 ovarian
[5] = test system: SF-295 CNS
[6] = test system: SNB-19 CNS
[7] = test system: UACC-62 melanoma
[8] = test system: UO-31 renal
[9] = test system: HCT-116 colon
[10] = test system: SN12C renal

Compound | TGI [1] [µM] | TGI [2] [µM] | TGI [3] [µM] | TGI [4] [µM] | TGI [5] [µM] | TGI [6] [µM] | TGI [7] [µM] | TGI [8] [µM] | TGI [9] [µM] | TGI [10] [µM] | GI50 [1] [µM] | GI50 [2] [µM] | GI50 [3] [µM] | GI50 [4] [µM] | GI50 [5] [µM] | GI50 [10] [µM] | GI50 [6] [µM] | GI50 [7] [µM] | GI50 [8] [µM] | GI50 [9] [µM]
O=C1CCC2(CC1CCSc1ccccc1)OCCO2 (centres undefined) | > 100 | > 100 | > 100 | > 100 | > 100 | > 100 | > 100 | > 100 |  |  |  |  |  |  |  |  |  |  |  | 
O=C(NC1(C(=O)NNc2nnc(-c3ccccc3)c(-c3ccccc3)n2)C(c2ccccc2)C(c2ccccc2)=NN1c1ccccc1)c1ccccc1 (centres undefined) | > 100 | > 100 | > 100 | > 100 | > 100 | > 100 | > 100 | > 100 | > 100 |  |  |  |  |  |  |  |  |  |  | 
S=c1nc2[nH]c3ccc(Br)cc3c2n[nH]1 |  | > 100 | > 100 | > 100 |  | > 100 | > 100 | > 100 | > 100 | > 100 |  |  |  |  |  |  |  |  |  | 
CCOP(=O)(OCC)/C(=C\N1C(=O)CC(=O)NC1=S)C(=O)OC | > 100 | > 100 |  | > 100 | > 100 | > 100 | > 100 | > 100 | > 100 | > 100 |  |  |  |  |  |  |  |  |  | 
NC(c1ccccc1)(C(F)(F)F)P1(=O)OC(=O)c2ccccc2O1 (centres undefined) | > 100 | 85 |  | > 100 | > 100 | > 100 | > 100 | > 100 | > 100 | > 100 |  |  |  |  |  |  |  |  |  | 
O=C(NNc1cn[nH]c(=O)c1Cl)/C(=C/c1ccc2c(c1)OCO2)NC(=O)c1ccccc1 | > 100 | > 100 |  | > 100 | > 100 | > 100 | > 100 | > 100 | > 100 | > 100 |  |  |  |  |  |  |  |  |  | 
CCOC(=O)c1c2c(n3ccc(NC(=O)OC(C)(C)C)cc13)C(=O)c1ncccc1C2=O | 0.7 | 0.927 | 0.817 | 3.22 | 1.13 | 1.36 | 0.639 | 0.397 |  | 1.21 | 0.143 | 0.137 | 0.179 | 0.291 | 0.272 | 0.071 | 0.159 | 0.138 | 0.0153 | 
Cc1nccn1S(=O)(=O)c1ccc(Br)cc1Br |  | 75.3 | 86.9 | > 100 | 93.1 | 90.3 | > 100 | 68.7 | > 100 | > 100 |  |  |  |  |  |  |  |  |  | 
Cc1ccc(-n2c(O)c3c(N)n[nH]c3c(C#N)c2=O)cc1 |  |  | > 100 | > 100 |  | > 100 | > 100 | > 100 | > 100 | > 100 |  |  |  |  |  |  |  |  |  | 
CCOC(=O)c1c2c(n(-c3ccc(OC)cc3)c1C)C(=O)C(=O)c1ccccc1-2 | 3.46 | 3.98 | > 20.4 | 3.44 | 3.17 | 19 | 3.28 |  | 3 | 3.19 |  |  |  |  |  |  |  |  |  | 
CN1C/C(=C\c2ccc(Cl)cc2)C(=O)/C(=C/c2ccc(Cl)cc2)C1 | > 28.5 | > 100 |  | > 65.9 | 2.07 | > 100 | 8.35 |  | 0.482 | > 100 |  |  |  |  |  |  |  |  |  | 
Cc1cn(CC2=NCCCN2)c(=O)[nH]c1=O | > 100 | > 100 | > 100 |  | > 100 | > 100 | > 100 | > 100 | > 100 | > 100 |  |  |  |  |  |  |  |  |  | 
C1#Cc2ccccc2OCCOc2ccccc2C#Cc2ccccc2OCCOc2ccccc21 | 23.2 |  | 49.8 | 30.6 | > 100 | > 100 | > 100 | > 100 | > 100 | > 100 |  |  |  |  |  |  |  |  |  | 
Nc1ccccc1NC(=O)CCCCCCC(=O)Nc1ccc2c(c1)/C(=C/c1ccc[nH]1)C(=O)N2 |  |  | > 100 |  | > 100 | > 100 | > 100 | > 100 | > 100 | > 100 |  |  | 2.78 |  | > 100 | 4.68 | > 100 | > 100 | 2.21 | 6.13
Cc1cccc2nc3cccc(C(=O)NCCC[N+](C)(CCCNC(=O)c4cccc5nc6cccc(C)c6nc45)Cc4c([N+](=O)[O-])ncn4C)c3nc12 |  | > 1100 | > 1100 | > 1100 | > 1100 | > 1100 | > 1100 | > 1100 | > 1100 | > 1100 |  | > 1100 | 16.2 | 14.8 | 25 | 150 |  | 38.8 | 48.7 | 
CCOC(=O)C(NC(=O)CC(C)C)(Nc1ccc(C(F)(F)F)cc1)C(F)(F)F (centres undefined) | > 100 | > 100 | > 100 | > 100 | > 100 | > 100 |  | > 100 | > 100 | > 100 |  |  |  |  |  |  |  |  |  | 
N/N=C1/C(=N/O)CCc2nonc21 | > 100 | > 100 |  | > 100 | > 100 | > 100 | > 100 | > 100 | > 100 | > 100 |  |  |  |  |  |  |  |  |  | 
CC1(C)[C@@H](Cn2cnc3c(=O)[nH]c(N)nc32)CC[C@@]1(C)CO | > 100 | > 100 |  | > 100 | > 100 | > 100 | > 100 | > 100 | > 100 | > 100 |  |  |  |  |  |  |  |  |  | 
O=C(Nc1nnc(-c2ccccc2)o1)C(SC(=S)N1CCOCC1)c1ccccc1 (centres undefined) | > 100 |  | 93.5 | > 100 | > 100 | > 100 |  | > 100 | > 100 | > 100 |  |  |  |  |  |  |  |  |  | 
O=C1CCCC2=C1C(c1ccc3c(c1)OCO3)Nc1ccc3ccccc3c12 (centres undefined) | > 100 |  | > 100 |  | > 100 | > 100 | > 100 | > 100 | > 100 | > 100 |  |  |  |  |  |  |  |  |  | 
